Target: α-synuclein (E46K α-syn) (Homo sapiens, UniProt P37840, E46K)
Test: Thioflavin T fibrillization assay with purified E46K α-syn
Assay type: biochemical

O=c1cc(-c2ccccc2)oc2cc(O)c(O)c(O)c12 [Baicalein]
IC50: ~10 µM

From paper PMC2910156 (Journal of neurochemistry, 2010)
